Laboratory results reported in patent US20100297025A1, “Novel compositions magnetic particles covered with gem-bisphosphonate derivatives” (Guerbet., priority 2002, published 2010).

Assays:
[1] = molecular target: T1, folate binding protein (FBP) (Bos taurus, UniProt P02702); assay: Affinity for Folate Binding Protein (FBP) by the BiaCore technique; settings: immobilized FBP
T1 construct: purchased Sigma F-0504
Procedure: 1/ Assay for Affinity of Example 17 for Folate Binding Protein (FBP) by the BiaCore Technique
PGM buffer: 100 mM KH2PO4, pH 7, 10% glycerol and 4 mM β-mercaptoethanol.
The immobilization of the FBP was carried out at 1 mg/ml in the PGM buffer according to the protocols recommended by BIAcore for coupling to amines. After this, the remaining active carboxylated groups are saturated with 1M of ethanolamine pH=8. The amount of FBP attached corresponds approximately to 1.5 ng/mm^2.
Example 17 was at a concentration of 0.170 mol/L of iron, which corresponds to 1.9×10^−5 mol of particles/L (considering a crystal of 7.5 nm, i.e. 8900 atoms of iron/particle).
The attachment of the folate was followed at four different concentrations (125, 250, 500 and 1000 μM) whereas that of example 17 was carried out at […] and at 10 nM (expressed as mol of particle/L). The association and the dissociation were studied with a flow at 25 μl/min. The association and dissociation phases are 5 minutes.

human MMP-3 = molecular target: T2, human MMP-3 (Homo sapiens, UniProt P08254); assay: Inhibitory effect on human MMP-3 activity, fluorimetry; type: biochemical; settings: MMP-3, reference product
T2 construct: host or cells: sF9 (insect) cell line
Procedure: More precisely, the test product, or the reference product or water, was added to a buffer solution, at pH=6, containing 6 nM of MMP-3. The fluorescence of this medium was evaluated at λex=340 nm and λem=405 nm by means of a plate reader (GeminiXS, Molecular Devices), after preincubation for 30 min at 37° C. (t=0). This measurement at t=0 serves to verify any possible interference of a product with the fluorescent detection. The enzyme reaction was then initiated by adding 10 μm of the substrate NFF-2. After incubation for 90 min at 37° C., the fluorescence was again evaluated under the same conditions as previously (t=90 min). The enzyme activity was then determined by subtracting the signal measured at t=0 from the signal measured at t=90 min.
The final result is expressed as percentage inhibition of the enzyme activity.

α5β1 = α5β1 (Homo sapiens, UniProt P05556+P08648); settings: cited from earlier work
αvβ5 = αvβ5 (Homo sapiens, UniProt P06756+P18084); settings: cited from earlier work
Sequence of αvβ5 (P06756 31-1048): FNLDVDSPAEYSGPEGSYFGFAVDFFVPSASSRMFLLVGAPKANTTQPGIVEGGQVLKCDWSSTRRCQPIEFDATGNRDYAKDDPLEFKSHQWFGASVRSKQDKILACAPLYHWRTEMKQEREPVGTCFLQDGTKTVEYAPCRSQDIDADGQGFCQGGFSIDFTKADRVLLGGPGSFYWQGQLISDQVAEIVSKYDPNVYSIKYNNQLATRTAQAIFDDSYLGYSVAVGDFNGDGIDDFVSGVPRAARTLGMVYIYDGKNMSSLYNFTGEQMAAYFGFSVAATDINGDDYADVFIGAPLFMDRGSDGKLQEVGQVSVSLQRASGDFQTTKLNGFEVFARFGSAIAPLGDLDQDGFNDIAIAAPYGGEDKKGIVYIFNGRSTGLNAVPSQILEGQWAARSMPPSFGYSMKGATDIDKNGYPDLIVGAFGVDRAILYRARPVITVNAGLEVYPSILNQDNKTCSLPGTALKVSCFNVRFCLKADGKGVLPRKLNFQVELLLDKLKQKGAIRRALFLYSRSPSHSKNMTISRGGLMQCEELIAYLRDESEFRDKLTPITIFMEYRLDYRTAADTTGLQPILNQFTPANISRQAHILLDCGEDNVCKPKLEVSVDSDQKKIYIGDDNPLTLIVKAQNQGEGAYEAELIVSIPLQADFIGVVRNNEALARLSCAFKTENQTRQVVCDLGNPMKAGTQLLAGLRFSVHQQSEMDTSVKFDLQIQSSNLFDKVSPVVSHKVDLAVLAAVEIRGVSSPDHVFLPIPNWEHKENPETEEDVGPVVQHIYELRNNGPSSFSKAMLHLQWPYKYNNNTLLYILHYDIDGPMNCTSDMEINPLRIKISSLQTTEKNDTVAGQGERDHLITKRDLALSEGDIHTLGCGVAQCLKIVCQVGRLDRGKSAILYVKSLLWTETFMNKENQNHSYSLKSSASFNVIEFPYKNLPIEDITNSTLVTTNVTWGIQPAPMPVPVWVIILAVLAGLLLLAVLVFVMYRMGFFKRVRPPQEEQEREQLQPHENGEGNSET
Sequence of αvβ5 (P18084 24-799): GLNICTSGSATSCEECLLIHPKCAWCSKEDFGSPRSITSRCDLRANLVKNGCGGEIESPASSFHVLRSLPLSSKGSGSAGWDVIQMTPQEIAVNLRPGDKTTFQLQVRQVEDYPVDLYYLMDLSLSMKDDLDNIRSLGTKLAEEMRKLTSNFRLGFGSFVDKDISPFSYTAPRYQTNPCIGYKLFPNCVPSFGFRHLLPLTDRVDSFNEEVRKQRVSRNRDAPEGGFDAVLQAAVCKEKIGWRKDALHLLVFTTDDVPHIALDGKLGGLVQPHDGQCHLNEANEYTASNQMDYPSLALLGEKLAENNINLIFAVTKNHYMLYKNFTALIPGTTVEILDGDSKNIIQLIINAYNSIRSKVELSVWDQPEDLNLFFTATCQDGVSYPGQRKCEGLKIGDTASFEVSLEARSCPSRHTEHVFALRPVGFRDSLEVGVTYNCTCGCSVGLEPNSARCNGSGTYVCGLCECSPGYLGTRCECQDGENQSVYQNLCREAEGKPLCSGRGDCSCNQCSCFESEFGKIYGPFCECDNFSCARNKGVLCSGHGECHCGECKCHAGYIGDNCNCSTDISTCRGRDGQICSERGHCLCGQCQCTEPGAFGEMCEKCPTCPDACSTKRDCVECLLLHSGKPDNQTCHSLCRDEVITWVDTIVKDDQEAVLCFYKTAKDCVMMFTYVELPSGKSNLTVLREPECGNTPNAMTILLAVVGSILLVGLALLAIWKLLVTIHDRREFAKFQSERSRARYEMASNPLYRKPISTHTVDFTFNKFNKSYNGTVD

T1 sequence (P02702 20-234): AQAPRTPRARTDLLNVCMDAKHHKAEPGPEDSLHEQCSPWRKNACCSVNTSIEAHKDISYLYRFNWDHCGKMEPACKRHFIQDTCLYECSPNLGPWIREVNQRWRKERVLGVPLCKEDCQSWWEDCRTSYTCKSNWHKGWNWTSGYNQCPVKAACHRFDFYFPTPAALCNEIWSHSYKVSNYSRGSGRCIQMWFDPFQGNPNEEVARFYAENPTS
T2 sequence (P08254 100-477): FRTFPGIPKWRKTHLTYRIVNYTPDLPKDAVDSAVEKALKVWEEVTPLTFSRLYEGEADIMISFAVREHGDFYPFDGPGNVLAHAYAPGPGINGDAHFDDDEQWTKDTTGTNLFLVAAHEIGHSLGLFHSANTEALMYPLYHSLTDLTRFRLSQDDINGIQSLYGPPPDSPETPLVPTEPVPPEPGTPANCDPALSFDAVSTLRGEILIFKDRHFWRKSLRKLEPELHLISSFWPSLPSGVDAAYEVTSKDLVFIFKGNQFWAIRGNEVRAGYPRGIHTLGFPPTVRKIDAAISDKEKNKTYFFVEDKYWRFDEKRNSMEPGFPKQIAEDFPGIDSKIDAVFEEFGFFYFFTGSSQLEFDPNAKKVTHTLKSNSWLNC
Sequence of α5β1 (P08648 42-1049): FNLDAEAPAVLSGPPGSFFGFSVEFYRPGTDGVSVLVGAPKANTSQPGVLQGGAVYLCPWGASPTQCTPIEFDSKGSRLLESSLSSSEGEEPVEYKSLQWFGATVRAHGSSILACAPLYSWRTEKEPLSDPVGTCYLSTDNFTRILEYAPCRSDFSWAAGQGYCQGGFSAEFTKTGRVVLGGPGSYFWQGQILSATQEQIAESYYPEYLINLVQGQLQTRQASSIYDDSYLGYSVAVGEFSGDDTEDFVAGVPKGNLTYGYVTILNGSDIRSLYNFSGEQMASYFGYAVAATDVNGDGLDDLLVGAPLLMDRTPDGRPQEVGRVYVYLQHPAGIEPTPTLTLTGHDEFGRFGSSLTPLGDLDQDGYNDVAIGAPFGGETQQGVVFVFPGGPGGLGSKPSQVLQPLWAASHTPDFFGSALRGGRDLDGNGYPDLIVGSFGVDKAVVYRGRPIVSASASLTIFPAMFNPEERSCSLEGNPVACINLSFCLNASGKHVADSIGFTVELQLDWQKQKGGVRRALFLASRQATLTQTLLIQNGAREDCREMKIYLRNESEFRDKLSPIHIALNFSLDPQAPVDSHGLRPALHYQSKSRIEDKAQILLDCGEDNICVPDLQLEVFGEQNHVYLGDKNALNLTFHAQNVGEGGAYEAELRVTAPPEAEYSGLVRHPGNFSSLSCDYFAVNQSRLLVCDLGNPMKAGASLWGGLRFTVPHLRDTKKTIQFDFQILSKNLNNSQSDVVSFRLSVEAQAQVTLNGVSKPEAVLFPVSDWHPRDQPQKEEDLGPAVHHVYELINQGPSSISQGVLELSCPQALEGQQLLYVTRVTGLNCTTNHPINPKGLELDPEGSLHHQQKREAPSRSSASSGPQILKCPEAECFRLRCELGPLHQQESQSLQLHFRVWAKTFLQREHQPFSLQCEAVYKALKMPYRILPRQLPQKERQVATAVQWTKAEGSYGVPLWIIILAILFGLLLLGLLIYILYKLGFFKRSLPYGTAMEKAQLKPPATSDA
Sequence of α5β1 (P05556 21-798): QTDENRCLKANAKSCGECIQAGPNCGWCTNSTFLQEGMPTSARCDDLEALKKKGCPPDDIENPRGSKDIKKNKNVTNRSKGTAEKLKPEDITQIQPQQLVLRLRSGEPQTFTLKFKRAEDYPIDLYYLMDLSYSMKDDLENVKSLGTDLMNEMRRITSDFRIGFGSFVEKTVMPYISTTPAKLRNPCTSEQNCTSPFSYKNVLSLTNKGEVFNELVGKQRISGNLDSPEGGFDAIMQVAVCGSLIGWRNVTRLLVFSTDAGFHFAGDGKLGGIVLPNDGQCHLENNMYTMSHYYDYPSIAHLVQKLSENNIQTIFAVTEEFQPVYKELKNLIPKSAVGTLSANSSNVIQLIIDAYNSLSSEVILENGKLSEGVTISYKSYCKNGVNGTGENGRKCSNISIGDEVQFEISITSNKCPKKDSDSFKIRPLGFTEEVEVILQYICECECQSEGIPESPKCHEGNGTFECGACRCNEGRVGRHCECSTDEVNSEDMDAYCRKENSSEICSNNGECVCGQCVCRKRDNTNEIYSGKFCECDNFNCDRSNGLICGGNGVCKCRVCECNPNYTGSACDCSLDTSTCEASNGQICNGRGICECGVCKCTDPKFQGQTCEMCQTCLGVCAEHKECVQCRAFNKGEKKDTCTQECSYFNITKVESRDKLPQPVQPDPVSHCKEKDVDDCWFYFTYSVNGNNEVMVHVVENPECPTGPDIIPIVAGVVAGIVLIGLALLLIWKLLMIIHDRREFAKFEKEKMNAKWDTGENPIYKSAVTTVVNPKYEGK

Nc1nc2ncc(CNc3ccc(C(=O)N[C@@H](CCC(=O)O)C(=O)O)cc3)nc2c(=O)[nH]1 [Folic acid]
kon ([1]; flow 25 μl/min, read-out: Association rate ka): 1000 M⁻¹ s⁻¹
koff ([1]; flow 25 μl/min, read-out: Dissociation rate kd): 0.0016 s⁻¹
Kd ([1]; read-out: Affinity constant KD): 1600 nM

CNC(=O)[C@H](Cc1c[nH]c2ccccc12)NC(=O)[C@@H](CC(=O)NO)CC(C)C [Ilomastat]
IC50 (human MMP-3): 130 nM

cyclo(ARGD-Mamb) [XJ735]
blocking of other integrins (α5β1): does not block
blocking of other integrins (αvβ5): does not block
